“Also recorded” adds a separate entry of the source. Where no end group is shown, it is not given here.
Experiments:
TLR4 signaling = assay: IL-6 production (ELISA) in BEAS-2B cells induced with LPS; type: cell-based, human; details: for IL-6 production (%) LPS-depend.: BEAS-2B cells induced with 1.0 μg/ml of LPS, LL-37 100
Method: (§1) IL-6 production was quantified by ELISA using the OptEIA™ kit (BD Biosciences). A typical assay used 2×10^4 BEAS-2B cells/well grown for 24 h in flat bottom 96-well plates. Poly(I:C) was added to a final concentration of 0.13 μg/ml. Antimicrobial peptides were added to the cell culture medium to a final concentration of 3 μM unless specified otherwise. All ELISA results shown were performed in triplicate and in at least three independent experiments.
(§2) To better define how residues in LL-37 contribute to function, several variants derived from LL-37 were tested for: 1) repression of TLR4 signaling by LPS, 2) enhancement of TLR3 signaling by poly(I:C), and 3) binding to LL-37. Signaling by TLR3 and TLR4 were monitored using ELISA to detect IL-6 secreted into the medium of BEAS-2B cells.

TLR3 signaling = assay: IL-6 production (ELISA) in BEAS-2B cells induced with poly(I:C); type: cell-based, human; details: for Enhancement of TLR3 signaling / poly(I:C)-induced IL-6, in words: BEAS-2B cells; for IL-6 production (%) poly(I:C)-depend.: BEAS-2B cells induced with 130 ng/ml of poly(I:C), LL-37 100
Method: as §1, §2

[1] = Dynamic light scatter spectroscopy, hydrodynamic radius; type: physicochemical; details: for Hydrodynamic radius (nm) pH 5.8 / Hydrodynamic radius (nm) pH 7.4: 1.0 μM peptide; for Hydrodynamic radius (nm) pH 5.8: phosphate buffer pH 5.8; for Hydrodynamic radius (nm) pH 7.4: phosphate buffer pH 7.4; for pH-dependent dissociation of peptide particles, in words: acidification of phosphate buffer
Method: The hydrodynamic radii of LL-37 and other peptides were monitored by a Zetasizer Nano-S instrument (Malvern Instruments). All measurements were taken with 1 μM of peptide dissolved in phosphate buffer adjusted to the desired pH at 22° C.

poly(I:C) = assay: Fluorescence polarization, peptide binding to poly(I:C)
Method: (§3) Peptide binding to poly(I:C) was analyzed by monitoring fluorescence polarization using the Synergy H1 microplate reader (BioTek). Fluorescein-labeled LL-37 was titrated to a 100 μL solution containing poly(I:C) and phosphate buffers at different pHs. Interactions between LL-37 and other peptides were analyzed using LL-37 labeled at the N-terminus with fluorescein (0.1 μM), and peptides were titrated from 1 nM to 1000 nM in phosphate buffer at pH 7.0. Interaction between poly(I:C) and different peptides was determined by titrating fluorescein-labeled poly(I:C) (0.1 μM) with peptides added to final concentrations of 10 to 500 nM in phosphate buffer at pH 7.4. All polarization assays were performed in triplicate.
LL-37 accompanies dsRNA to endosomes containing TLR3. However, it is unknown whether LL-37 will release the dsRNA in endosomes. Johansson et al. (1998) have previously determined that a neutral pH is required for the activity of LL-37. We seek to determine whether LL-37 binding to dsRNA can be affected by pH.

Reovirus dsRNA, Reo S4 = assay: IL-6 production in BEAS-2B cells in the presence of Reovirus dsRNA Reo S4; type: cell-based, human
Method: as §1
Herein, we analyzed the LL-37 orthologs from Rhesus monkeys, pig, sheep, guinea pigs, rabbit, as well as mouse (FIG. 14A). All peptides were chemically synthesized and assayed for the induction of inflammatory cytokine IL-6 in the presence of the double-stranded RNA mimic, poly(I:C) or the Reovirus dsRNA, Reo S4 (FIGS. 14B and 14C). […] Importantly, all LL-37 orthologs tested had the ability to reduce IL-6 production in response to LPS (FIG. 14E).

[2] = system: Escherichia coli ATCC 25922; assay: MIC assay, broth microdilution (CLSI); type: cell-based; details: E. coli ATCC 25922; peptide: None
Method: MIC assays were performed according to protocols for broth microdilution according to the Clinical Laboratory Standards Institute (CLSI, 2015. Methods for Dilution Antimicrobial susceptibility tests for bacterial that grow aerobically; Approved standard—tenth edition).

f-LL37 = target: T1, f-LL37 (Homo sapiens, UniProt P49913); assay: Fluorescence polarization, interaction of peptides with fluorescein-labeled LL-37; type: binding
T1 sequence (P49913 134-170 limits assumed): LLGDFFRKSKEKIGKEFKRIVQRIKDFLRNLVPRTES
Method: as §3

[3] = system: LL-37 enhancement of TLR3 signaling; assay: Antagonism of LL-37/poly(I:C)-enhanced IL-6 production in BEAS-2B cells; type: cell-based, human; details: peptide added with LL-37/poly(I:C), BEAS-2B cells
Method: as §1
We examined whether LL-29 could affect the enhancement of TLR3 signaling by WT LL-37/poly(I:C). An increasing amount of LL-29 along with a constant amount of LL-37/poly(I:C) was used to assess IL-6 production in BEAS-2B cells. […] That is, LL-29 abrogated LL-37's ability to enhance TLR3 signaling. That is, LL-29 is an example of a peptide antagonist of LL-37 function.

FPRL-1 receptor = target: T2, FPRL-1 receptor (Homo sapiens, UniProt P25090); assay: IL-6 production in BEAS-2B cells knocked down with siRNA (FPRL-1, EGFR, control); type: cell-based; details: for IL-6 production, peptide added along with LL-37 and poly(I:C), in words: siRNA to FPRL-1 or nonspecific control; for IL-6 production, peptide with poly(I:C), in words: knockdown of either FPRL-1 or EGFR
T2 construct: a human lung epithelial cell line that expresses endogenous FPRL-1; endogenous in cells; host or cells: BEAS-2B
T2 sequence (P25090 1-351): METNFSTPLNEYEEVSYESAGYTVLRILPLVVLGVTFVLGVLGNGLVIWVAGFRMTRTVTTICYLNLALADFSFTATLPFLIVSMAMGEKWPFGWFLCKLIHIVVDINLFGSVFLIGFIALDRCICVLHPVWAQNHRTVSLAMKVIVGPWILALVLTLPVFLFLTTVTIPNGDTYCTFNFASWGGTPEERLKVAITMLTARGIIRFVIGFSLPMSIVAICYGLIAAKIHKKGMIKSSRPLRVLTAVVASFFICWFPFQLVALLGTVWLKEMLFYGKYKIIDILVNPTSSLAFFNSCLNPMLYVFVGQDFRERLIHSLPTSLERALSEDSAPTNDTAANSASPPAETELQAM
Method: BEAS-2B cells were seeded at 2×10^6 cells per 6-well plate for 6 h prior to transfection with 30 nM of a pool of three siRNAs from Santa Cruz Biotechnology. Transfections were done using Lipofectamine 2000.
Cells were grown on poly-L-lysine (Life Technologies). The level of target mRNA was analyzed using qRT-PCR and normalized to the levels of GAPDH mRNA. The sequences of the primers will be made available upon request. Poly(I:C) was added 48 h after siRNA transfection and IL-6 levels in the culture media were collected 24 h later.
LL-37's enhancement of TLR3 signaling required trafficking of LL-37/poly(:C) to endosomes via the FPRL-1 receptor. Therefore, we examined whether LL-29 used the FPRL-1 receptor to enter cells. siRNA was used to knock down the expression of either FPRL-1, EGFR, or TLR3. […] Co-localization of fLL-37 and rpIC was reduced to less than a third of the control. […] Knockdowns performed with siRNAs to either a nonspecific control or EGFR had no effect on the enhancement of IL-6 production.
Will LL-29 affect the use of the FPRL-1 receptor by the LL-37/poly(I:C) complex? BEAS-2B cells knocked down for FPRL-1 were treated with LL-37 along with additional concentrations of LL-37, Pentamide, LL-29, Peptide A, or LL8-37 (FIG. 6C). Signaling by TLR3 was determined by the amount of IL-6 secreted in the cell culture media. A control siRNA had no effect on WT LL-37/poly(I:C) enhancement of IL-6 production.
LL-37 uses the Formyl peptide receptor-like 1 (FPRL-1) receptor to deliver nucleic acids into endosomes, where activation of the Toll-like receptors that recognize nucleic acids takes place (Singh et al., 2014). We sought to determine whether the LL-37 orthologs from other mammals could also use the FPRL-1 in the human BEAS-2B cells to deliver dsRNA. BEAS-2B cells were treated with poly(I:C) along with the peptides and the peptides from pig, sheep, rabbit, and mouse had reduced ability to use the FPRL-1 to activate IL-6 production.

GLLRKGGEKIGEKLKKIGQKIKNFFQKLVPQPEQ [mCRAMP, murine ortholog of LL-37, reference compound]
IL-6 production (%) LPS-depend. (TLR4 signaling): 82 ± 29%
Enhancement of TLR3 signaling / poly(I:C)-induced IL-6, in words (TLR3 signaling): failed to enhance TLR3 signaling; also recorded: unable to enhance IL-6 production
IL-6 production (%) poly(I:C)-depend. (TLR3 signaling): 31 ± 3%
Hydrodynamic radius (nm) pH 5.8 [1]: 1106 nm
Hydrodynamic radius (nm) pH 7.4 [1]: 1718 nm
Binding to poly(I:C)/dsRNA in fluorescent polarization assay, in words (poly(I:C)): failed to bind dsRNA
Enhancement of IL-6 production / signaling by Reo S4, in words (Reovirus dsRNA, Reo S4): unable to enhance IL-6 production

NC[C@H]1O[C@H](O[C@H]2[C@H](O)[C@@H](O[C@H]3O[C@H](CO)[C@@H](O)[C@H](N)[C@H]3O)[C@H](N)C[C@@H]2N)[C@H](O)[C@@H](O)[C@@H]1O [Kanamycin, reference compound]
MIC (μg/ml) of antibiotic, no peptide [2]: 4 µg/mL

SKEKIGKEFKRIVQRIKDFLR [LL9-29]
IL-6 production (%) LPS-depend. (TLR4 signaling): 196 ± 11%
Enhancement of TLR3 signaling / poly(I:C)-induced IL-6, in words (TLR3 signaling): failed to enhance TLR3 signaling
IL-6 production (%) poly(I:C)-depend. (TLR3 signaling): 31 ± 3%
Hydrodynamic radius (nm) pH 5.8 [1]: 1281 nm
Hydrodynamic radius (nm) pH 7.4 [1]: 446.5 nm
pH-dependent dissociation of peptide particles, in words [1]: failed to dissociate
Interaction with fLL-37, in words (f-LL37): did not
Binding f-LL37: fold change in the fluorescence anisotropy values of f-LL-37 (f-LL37; between 1.0 nM and 1000 nM of added peptide): 2.6 ± 0.2 fold

RL-37: LL-37 ortholog from Rhesus monkey, SEQ ID NO: 20 (RLGNFFRKVKEKIGGGLKKVGQKIKDFLGNLVPRTAS; (1)..(37) Monkey RL-37; listed as Macaca mulatta) [reference compound]
Enhancement of TLR3 signaling / poly(I:C)-induced IL-6, in words (TLR3 signaling): more similar to that of the human LL-37

LLGDFFRKSKEKIGKEFKRIVQRIKDFLRKLVPQPEQ (listed as Homo sapiens) [Peptide A]
IL-6 production (%) LPS-depend. (TLR4 signaling): 161 ± 11%
IL-6 production (%) poly(I:C)-depend. (TLR3 signaling): 41 ± 6%
Hydrodynamic radius (nm) pH 5.8 [1]: 956 nm
Hydrodynamic radius (nm) pH 7.4 [1]: 1990 nm
pH-dependent dissociation of peptide particles, in words [1]: reduced for the ability to dissociate under acidic pH conditions
Interaction with fLL-37, in words (f-LL37): retained partial interaction with fLL-37; also recorded: retain partial activity to interact with fLL-37
Binding to poly(I:C)/dsRNA in fluorescent polarization assay, in words (poly(I:C)): debilitated for binding RNA
Antagonism of LL-37 enhancement of TLR3 signaling (IL-6), in words [3]: to a lesser degree than LL-29; also recorded: can partially antagonize the enhancement of TLR3 signaling
IL-6 production, peptide added along with LL-37 and poly(I:C), in words (FPRL-1 receptor): resulted in a reduction in IL-6 levels

COc1cc(Cc2cnc(N)nc2N)cc(OC)c1OC [Trimethoprim, reference compound]
MIC (μg/ml) of antibiotic, no peptide [2]: 0.25 µg/mL

LLGNFFRKSKQKIGKQFKRIVQRIKNFLRNLVPRTQS (not fully specified) [Pentamide, five acidic residues in LL-37 replaced with neutral-polar residues, reference compound]
Suppression of TLR4 signaling / LPS-induced IL-6, in words (TLR4 signaling; BEAS-2B cells): failed to suppress TLR4 signaling
IL-6 production (%) LPS-depend. (TLR4 signaling): 400 ± 32%
Enhancement of TLR3 signaling / poly(I:C)-induced IL-6, in words (TLR3 signaling): failed to enhance TLR3 signaling
IL-6 production (%) poly(I:C)-depend. (TLR3 signaling): 31 ± 0%
Hydrodynamic radius (nm) pH 5.8 [1]: 1990 nm
Hydrodynamic radius (nm) pH 7.4 [1]: 1106 nm
pH-dependent dissociation of peptide particles, in words [1]: failed to dissociate
Binding to poly(I:C)/dsRNA in fluorescent polarization assay, in words (poly(I:C)): failed to bind dsRNA
IL-6 production, peptide with poly(I:C), in words (FPRL-1 receptor): did not enhance IL-6 production
IL-6 production, peptide added along with LL-37 and poly(I:C), in words (FPRL-1 receptor): had no effect on IL-6 production unless FPRL-1 expression was reduced

SKEKIGKEFKRIVQRIKDFLRNLVPRTES ((1)..(29) LL8-37; listed as Homo sapiens)
IL-6 production (%) LPS-depend. (TLR4 signaling): 239 ± 21%
IL-6 production (%) poly(I:C)-depend. (TLR3 signaling): 38 ± 3%
Hydrodynamic radius (nm) pH 5.8 [1]: 615 nm
Hydrodynamic radius (nm) pH 7.4 [1]: 825 nm
Interaction with fLL-37, in words (f-LL37): retain partial activity to interact with fLL-37
IL-6 production, peptide with poly(I:C), in words (FPRL-1 receptor): did not enhance IL-6 production
IL-6 production, peptide added along with LL-37 and poly(I:C), in words (FPRL-1 receptor): had no effect on IL-6 production unless FPRL-1 expression was reduced

COc1cccc2c1C(=O)c1c(O)c3c(c(O)c1C2=O)C[C@@](O)(C(=O)CO)C[C@@H]3O[C@H]1C[C@H](N)[C@H](O)[C@H](C)O1 [Doxorubicin, reference compound]
MIC (μg/ml) of antibiotic, no peptide [2]: 0.5 µg/mL

Source: US10138282B2, “Peptide antagonist of LL-37” (INDIANA UNIVERSITY RESEARCH AND TECHNOLOGY CORPORATION, priority 2014, dated 2018)
